From paper PMC11768370, “Etodolac Single Dose Metabolic Profile Elucidation: Pharmacokinetics and Adverse Events in Healthy Volunteers” (Pharmaceuticals, 2025)

Experiments:
[1] = Drug stability in biological fluid (LC-MS/MS method validation); type: in vitro ADME; settings: human plasma, LQC and HQC; freshly prepared, post-processing (auto-injector, 73:43 hours), short-term (72:21 hours), freeze-thaw (4 cycles) at -20 °C and -70 °C, long-term 90 days at -20 °C and -70 °C; demonstrating stability
Protocol: criteria for RE and CV must not exceed 15% for QC and 20% for LLOQ. All stability assays were performed to cover the conditions anticipated for handling real samples: freshly prepared, post-processing, short-term, freeze–thaw, and long-term were evaluated at concentrations of LQC and HQC. RE and CV were used to check possible variations.
2.4. Determination of Etodolac Pharmacokinetic
Following Food and Drug Administration (FDA) guidelines, blood samples were drawn up to a period of three to ﬁve times the terminal elimination half-life (t1/2), and the mean AUC0–t/AUC0–∞ ratio was required to be higher than 80%. The area under the concentration–time curve (AUC0–t) was calculated from time 0 to time t. The total area under the curve (AUC0–∞) was obtained up to […], and extrapolations were performed using the last measurable concentration and the terminal elimination rate constant (Ke). The terminal elimination rate constant, Ke, was estimated from the slope of the terminal […] of the plasma of the etodolac concentration–time curve (by means of the linear regression method) adjusted in the last three values. The terminal elimination half-life, t1/2, was then obtained as 0.693/Ke. […]

[2] = parameters: method as in PMID 36959150; settings: cited from earlier work

Question: For `CCc1cccc2c3c([nH]c12)C(CC)(CC(=O)O)OCC3` (stereo not drawn) [Etodolac], which “drug stability in biological fluid: precision and accuracy values” [1] is on record?
Answer: below 15%

Question: What about the solubility [2] of the same compound?
Answer: poor solubility

Question: What about the “Biopharmaceutics Classification System class” value ([2]; dissolution rate-dependent absorption) of the same compound?
Answer: BCS class II
